{"source": "patent US9546145B2", "about": "“Combination therapy for the treatment of chronic renal failure with an angiotensin II receptor antagonist and beraprost” (Toray Industries, Inc., priority 2003, dated 2017)", "key": {"[1]": {"system": "WKY rats with nephritis induced by rabbit anti-rat glomerular basement membrane antiserum", "test": "nephritis-induced renal failure model in rats, mortality / survival rate", "type": "in vivo", "settings": "Example 7, FIG. 2; candesartan cilexetil 10 mg/kg OAD and/or beraprost sodium 100 μg/kg BID; compared with the control group", "procedure": "To 9-week old WKY rats, rabbit anti-rat glomerular basement membrane antiserum was administered to induce nephritis. At two weeks after administering the antiserum, the animals were divided into the following 4 groups and medication was started. • 1) Control Group: 0.5% CMC(OAD)+distilled water (BID), n=11 • 2) Candesartan Group (Comparative Example): candesartan cilexetil 10 mg/kg (OAD)+distilled water (BID), n=11 • 3) BPS Group (Comparative Example): 0.5% CMC(OAD)+beraprost sodium 100 μg/kg (BID), n=11 • 4) Candesartan+BPS Group (this disclosure): candesartan cilexetil 10 mg/kg (OAD)+beraprost sodium 100 μg/kg (BID), n=12"}, "[2]": {"system": "WKY rats with nephritis induced by rabbit anti-rat glomerular basement membrane antiserum (renal failure stage)", "test": "nephritis-induced renal failure model in rats, blood creatinine level", "type": "in vivo", "settings": "for effect to suppress the progress of nephritis (raise in the blood creatinine level) / effect to suppress the progress of nephropathy (blood creatinine level): Example 1, FIG. 1; for effect to suppress the progress of nephritis (raise in the blood creatinine level): beraprost sodium 100 μg/kg BID and/or candesartan cilexetil 10 mg/kg OAD; for effect to suppress the progress of nephritis (raise in the blood creatinine level) / effect to suppress the progress of renal failure: compared with the control group; for effect to suppress the progress of nephropathy (blood creatinine level): increased dosage alone: beraprost sodium 300 μg/kg BID or candesartan cilexetil 30 mg/kg OAD, compared with BPS100+candesartan10 group; for blood creatinine level at 7 weeks after induction: started 2 weeks after antiserum", "procedure": "After the start of the medication, blood was collected at one week intervals, and blood creatinine level was measured. To 9-week old WKY rats, rabbit anti-rat glomerular basement membrane antiserum was administered to induce nephritis. […] To 9-week old WKY rats, rabbit anti-rat glomerular basement membrane antiserum was administered to induce nephritis. […] At six weeks after the induction, blood creatinine level was measured to assess the progress of renal failure. […] To 9-week old WKY rats, rabbit anti-rat glomerular basement membrane antiserum was administered to induce nephritis. […] After the start of the medication, blood was collected at one week intervals, and blood creatinine level was measured. The data were plotted taking the reciprocal of the blood creatinine level measured for five weeks after the start of the medication along the ordinate and taking the time along the abscissa, and the slope of the regression line was defined as the rate of progress of renal failure of each animal. To 9-week old WKY rats, rabbit anti-rat glomerular basement membrane antiserum was administered to induce nephritis. […] After the start of the medication, blood was collected at one week intervals, and blood creatinine level was measured. The data were plotted taking the reciprocal of the blood creatinine level measured for five weeks after the start of the medication along the ordinate and taking the time along the abscissa, and the slope of the asymptote was defined as the rate of progress of renal failure of each animal. To 9-week old WKY rats, rabbit anti-rat glomerular basement membrane antiserum was administered to induce nephritis. […] After the start of the medication, blood was collected at one week intervals, and blood creatinine level was measured. The data were plotted taking the reciprocal of the blood creatinine level measured for six weeks after the start of the medication along the ordinate and taking the time along the abscissa, and the slope of the asymptote was defined as the rate of progress of renal failure of each animal."}, "[3]": {"system": "patients suffering from diabetic nephropathy", "settings": "Nephron 2002, 92(4): 788-96; cited from earlier work"}, "[4]": {"system": "glomerular nephritis model in rats", "settings": "Kidney Int 1998, 53(5) 1314-20; cited from earlier work"}, "[5]": {"system": "patients suffering from diabetic nephropathy", "settings": "N Engl J Med 2001, 345(12): 861-9; cited from earlier work"}, "[6]": {"system": "renal dysfunction induced by uninephrectomy and by loading high sodium and high protein", "settings": "Am J Hypertens 1997 10: 209-16; cited from earlier work"}, "[7]": {"system": "diabetes mellitus model in rats", "settings": "each drug individually or in combination, versus control group; Am J Hypertens 1997 10: 202-208; cited from earlier work"}, "[8]": {"system": "diabetic nephritis induced by streptozotocin in rats", "settings": "J Hypertens Suppl 1993; 11 Suppl 5: S208-9; cited from earlier work"}, "[9]": {"system": "anti-Thyl-induced nephritis model", "settings": "Am J Pathol 1993; 142(2): 441-50; cited from earlier work"}, "[10]": {"system": "diabetic nephropathy", "settings": "compared with blood pressure control by a calcium antagonist; N Engl J Med 2001; 345(12): 851-60; cited from earlier work"}, "[11]": {"settings": "Example 2, during medication, telmisartan 40 mg/kg OAD and/or beraprost sodium 100 μg/kg BID"}, "[12]": {"settings": "Example 2, telmisartan 40 mg/kg OAD and/or beraprost sodium 100 μg/kg BID, mean ± S.E."}, "[13]": {"settings": "Example 3, losartan 30 mg/kg BID and/or beraprost sodium 100 μg/kg BID"}, "[14]": {"settings": "Example 3, losartan 30 mg/kg BID and/or beraprost sodium 100 μg/kg BID, mean ± S.E."}, "[15]": {"settings": "Example 4, enalapril maleate 10 mg/kg OAD and/or beraprost sodium 100 μg/kg BID"}, "[16]": {"settings": "Example 4, enalapril maleate 10 mg/kg OAD and/or beraprost sodium 100 μg/kg BID, mean ± S.E."}, "[17]": {"settings": "Example 4, slope of regression line of reciprocal blood creatinine over five weeks of medication, enalapril maleate 10 mg/kg OAD and/or beraprost sodium 100 μg/kg BID, mean ± S.E."}, "[18]": {"settings": "Example 5, lisinopril 10 mg/kg OAD and/or beraprost sodium 100 μg/kg BID"}, "[19]": {"settings": "Example 5, lisinopril 10 mg/kg OAD and/or beraprost sodium 100 μg/kg BID, mean ± S.E."}, "[20]": {"settings": "Example 5, slope of reciprocal blood creatinine over five weeks of medication, lisinopril 10 mg/kg OAD and/or beraprost sodium 100 μg/kg BID, mean ± S.E."}, "[21]": {"settings": "Example 6, perindopril erbumine 10 mg/kg OAD and/or beraprost sodium 100 μg/kg BID"}, "[22]": {"settings": "Example 6, slope of reciprocal blood creatinine over six weeks of medication, perindopril erbumine 10 mg/kg OAD and/or beraprost sodium 100 μg/kg BID"}}, "note": "Where a name gives a salt, the structure may show the parent alone.", "data": [{"smiles": "CC#CCC(C)[C@H](O)/C=C/[C@@H]1[C@H]2c3cccc(CCCC(=O)[O-])c3O[C@H]2C[C@H]1O.[Na+]", "note": "(stereo partly drawn) [BPS, beraprost sodium]", "values": [{"measurement": "mortality rate / survival rate", "setting": "[1]", "value": "no difference"}, {"measurement": "effect to suppress the progress of nephritis (raise in the blood creatinine level)", "setting": "[2]", "value": "almost no difference"}, {"measurement": "effect to suppress the progress of nephropathy (blood creatinine level)", "setting": "[2]", "value": "smaller than that observed in BPS100+candesartan10 group"}, {"measurement": "effect to suppress the progress of renal failure", "setting": "[2]; [11]", "value": "almost no difference"}, {"measurement": "blood creatinine level at 7 weeks after induction", "setting": "[2]; [12]", "value": "1.56 ± 0.76", "unit": "mg/dL"}, {"measurement": "effect to suppress the progress of renal failure", "setting": "[2]; [13]", "value": "no difference"}, {"measurement": "blood creatinine level at 6 weeks after induction", "setting": "[2]; [14]", "value": "0.93 ± 0.18", "unit": "mg/dL"}, {"measurement": "effect to suppress the progress of renal failure", "setting": "[2]; [15]", "value": "no difference"}, {"measurement": "blood creatinine level at 6 weeks after induction", "setting": "[2]; [16]", "value": "0.93 ± 0.18", "unit": "mg/dL"}, {"measurement": "rate of progress of renal failure", "setting": "[2]; [17]", "value": "0.32 ± 0.04", "unit": "dL/mg × week"}, {"measurement": "effect to suppress the progress of renal failure", "setting": "[2]; [18]", "value": "almost no difference"}, {"measurement": "blood creatinine level at 6 weeks after induction", "setting": "[2]; [19]", "value": "1.49 ± 0.59", "unit": "mg/dL"}, {"measurement": "rate of progress of renal failure", "setting": "[2]; [20]", "value": "0.37 ± 0.07", "unit": "dL/mg × week"}, {"measurement": "blood creatinine level at 6 weeks after induction", "setting": "[2]; [21]", "value": "0.93 ± 0.18", "unit": "mg/dL"}, {"measurement": "effect to suppress the progress of renal failure", "setting": "[2]; [21]", "value": "tendency to suppress the progress of renal failure"}, {"measurement": "rate of progress of renal failure", "setting": "[2]; [22]", "value": "0.29 ± 0.03", "unit": "dL/mg × week"}, {"measurement": "urinary protein", "setting": "[3]", "value": "decreases urinary protein"}, {"measurement": "urinary protein", "setting": "[4]", "value": "decreases urinary protein"}]}, {"smiles": "CCOC(=O)[C@H](CCc1ccccc1)N[C@@H](C)C(=O)N1CCC[C@H]1C(=O)O", "note": "[Enalapril, enalapril maleate]", "values": [{"measurement": "effect to suppress the progress of renal failure", "setting": "[2]; [15]", "value": "no difference"}, {"measurement": "blood creatinine level at 6 weeks after induction", "setting": "[2]; [16]", "value": "1.83 ± 0.44", "unit": "mg/dL"}, {"measurement": "rate of progress of renal failure", "setting": "[2]; [17]", "value": "0.41 ± 0.04", "unit": "dL/mg × week"}]}, {"smiles": "NCCCC[C@H](N[C@@H](CCc1ccccc1)C(=O)O)C(=O)N1CCC[C@H]1C(=O)O", "note": "[Lisinopril, lisinopril]", "values": [{"measurement": "effect to suppress the progress of renal failure", "setting": "[2]; [18]", "value": "almost no difference"}, {"measurement": "blood creatinine level at 6 weeks after induction", "setting": "[2]; [19]", "value": "1.20 ± 0.34", "unit": "mg/dL"}, {"measurement": "rate of progress of renal failure", "setting": "[2]; [20]", "value": "0.39 ± 0.08", "unit": "dL/mg × week"}]}, {"smiles": "CCCCc1nc(Cl)c(CO)n1Cc1ccc(-c2ccccc2-c2nn[nH]n2)cc1", "note": "[Losartan, losartan]", "values": [{"measurement": "risk-lowering rate (doubling time of creatinine, dialysis, complicated risk of death)", "setting": "[5]", "value": 16.1, "unit": "%"}, {"measurement": "effect to suppress the progress of renal failure", "setting": "[2]; [13]", "value": "no difference"}, {"measurement": "blood creatinine level at 6 weeks after induction", "setting": "[2]; [14]", "value": "1.94 ± 0.61", "unit": "mg/dL"}]}, {"smiles": "CCC[C@H](N[C@@H](C)C(=O)N1[C@H](C(=O)O)C[C@@H]2CCCC[C@@H]21)C(=O)OCC", "note": "[Perindopril, perindopril erbumine]", "values": [{"measurement": "blood creatinine level at 6 weeks after induction", "setting": "[2]; [21]", "value": "1.09 ± 0.42", "unit": "mg/dL"}, {"measurement": "effect to suppress the progress of renal failure", "setting": "[2]; [21]", "value": "tendency to suppress the progress of renal failure"}, {"measurement": "rate of progress of renal failure", "setting": "[2]; [22]", "value": "0.30 ± 0.05", "unit": "dL/mg × week"}]}, {"smiles": "CCCc1nc2c(C)cc(-c3nc4ccccc4n3C)cc2n1Cc1ccc(-c2ccccc2C(=O)O)cc1", "note": "[Telmisartan, telmisartan]", "values": [{"measurement": "effect to suppress the progress of renal failure", "setting": "[2]; [11]", "value": "suppressed"}, {"measurement": "blood creatinine level at 7 weeks after induction", "setting": "[2]; [12]", "value": "0.93 ± 0.43", "unit": "mg/dL"}, {"measurement": "blood creatinine level at 8 weeks after induction (1 week after the end of the medication)", "setting": "[2]; [12]", "value": "1.18 ± 0.80", "unit": "mg/dL"}, {"measurement": "progress of renal failure / blood creatinine level at one week after the end of the medication", "setting": "[2]; Example 2, telmisartan 40 mg/kg OAD with or without beraprost sodium 100 μg/kg BID", "value": "renal failure was progressed"}]}, {"smiles": "CCOc1nc2cccc(C(=O)OC(C)OC(=O)OC3CCCCC3)c2n1Cc1ccc(-c2ccccc2-c2nn[nH]n2)cc1", "note": "(stereo not drawn) [candesartan, candesartan cilexetil]", "values": [{"measurement": "mortality rate / survival rate", "setting": "[1]", "value": "no difference"}, {"measurement": "effect to suppress the progress of nephritis (raise in the blood creatinine level)", "setting": "[2]", "value": "almost no difference"}, {"measurement": "effect to suppress the progress of nephropathy (blood creatinine level)", "setting": "[2]", "value": "smaller than that observed in BPS100+candesartan10 group"}]}, {"smiles": "CCC#CC[C@H](C)[C@H](O)C#C[C@@H]1[C@H]2C/C(=C/COCC(=O)O)C[C@H]2C[C@H]1O", "note": "[cicaprost]", "values": [{"measurement": "suppression of renal dysfunction", "setting": "[6]", "value": "suppressed"}, {"measurement": "renal function parameters such as urinary protein, damage of renal tissue", "setting": "[7]", "value": "less severe"}, {"measurement": "suppression of diabetic nephritis", "setting": "[8]", "value": "suppressed"}]}, {"smiles": "CC#CCC(C)[C@H](O)/C=C/[C@@H]1[C@H]2C/C(=C/CCCC(=O)O)C[C@H]2C[C@H]1O", "note": "(stereo partly drawn) [iloprost]", "values": [{"measurement": "urinary protein", "setting": "[9]", "value": "decreased urinary protein"}]}, {"smiles": "CCCCC1=NC2(CCCC2)C(=O)N1Cc1ccc(-c2ccccc2-c2nnn[nH]2)cc1", "note": "[irbesartan]", "values": [{"measurement": "effect of suppressing the progress of diabetic nephropathy", "setting": "[10]", "value": "superior"}]}]}
